Reference: patent publication US7560529B2, “Method for producing catalytic antibodies (variants), antigens for immunization and nucleotide sequence” (FDS Pharma, priority 2001, dated 2009)

System: CD4+ T-lymphocytes from SJL mice
Test: Flow cytometry of surface marker expression in T-lymphocytes of immunized SJL mice
Type: in vivo
Text: To characterize the features of immune response development upon immunization with a fusion protein comprising the neuroantigen MBP, a comparative analysis of specific surface markers expression in T-lymphocytes from SJL mice that were not immunized (control), from mice immunized with the synthetic peptide MBP89-104, recombinant fusion protein gp120I-IIImbp (the product of Construct No. 15 (see FIG. 3) at two different doses and recombinant protein gp120I-III (the product of Construct No. 13 (see FIG. 3) was carried out (FIG. 11). All the immunizations were performed in parallel under identical conditions as described above. Twenty one days after the beginning of an experiment, CD4+ T-lymphocytes isolated from two mice of each group were analyzed by flow cytometry. A specific feature of SJL mice was initially low CD8+ T-cell counts.

Sequence: VVHFFKNIVTPRTPPPS [peptide MBP, encephalitogenic 89-104 peptide of the myelin basic protein, reference compound]
- T-cell immune response by day 21 after immunization (surface markers CD11a, CD44, CD45RB, CD62-L): fully developed T-cell immune response
